Laboratory results from US7037901B1, “Radiosensitization by indolocarbazole derivatives” (priority 2001, dated 2006).

tested on: human MCF-7, Chinese hamster CHO and DC3F cells; test: Cytotoxicity (LD50) by clonogenic survival assays in three cell lines; format: cell-based; conditions: 1 h drug treatment; MCF-7, CHO and DC3F cells
Protocol: (§1) Clonogenic Survival Assay. […] 18–24 h prior to experimental studies.
(§2) Colonies consisting of >50 cells were counted.
We investigated the relationship between the TOP1-mediated DNA damage and the cytotoxic and radiosensitizing effects induced by the six INDO derivatives. The cytotoxicity of various INDO derivatives was determined by exposing logarithmically growing human MCF-7, Chinese hamster CHO and DC3F cells to the individual drug for 1 hr, followed by clonogenic survival assays.

| SMILES | Cytotoxicity (based on LD50) |
| --- | --- |
| CO[C@H]1[C@H](O)[C@@H](O)[C@H](n2c3c(Cl)cccc3c3c4c(c5c6cccc(Cl)c6[nH]c5c32)C(=O)NC4=O)O[C@@H]1CO [F1, rebeccamycin] | ++ (modest activity, LD50 >4 μg/ml but ≦10 μg/ml) |
| COC1C(CO)OC(n2c3ccccc3c3c4c(c5c6ccccc6[nH]c5c32)C(=O)OC4=O)C(O)C1O (stereo not drawn) [F5] | + (low activity, LD50 >10 μg/ml) |
| COC1C(CO)OC(n2c3ccccc3c3c4c(c5c6ccccc6[nH]c5c32)C(=O)N(O)C4=O)C(O)C1O (stereo not drawn) [F7] | ++ (modest activity, LD50 >4 μg/ml but ≦10 μg/ml) |
| COC1C(CO)OC(n2c3c(Cl)cccc3c3c4c(c5c6cccc(Cl)c6[nH]c5c32)C(=O)N(C)C4=O)C(O)C1O (stereo not drawn) [F43] | + (low activity, LD50 >10 μg/ml) |
| COC1C(CO)OC(n2c3ccccc3c3c4c(c5c6ccccc6[nH]c5c32)C(=O)N(C)C4=O)C(O)C1O (stereo not drawn) [F44] | +++ (high activity, LD50 ≦4 μg/ml) |
| COC1C(CO)OC(n2c3ccccc3c3c4c(c5c6ccccc6[nH]c5c32)C(=O)NC4=O)C(O)C1O (stereo not drawn) [F71] | +++ (high activity, LD50 ≦4 μg/ml) |

tested on: human breast cancer MCF-7 cells; test: Clonogenic survival assay, drug alone (cytotoxicity) in MCF-7 cells; format: cell-based; conditions: 2 μg/ml for 1 h, read graphically from FIG. 2
Protocol: as §1, §2

| SMILES | Percent of cell survival without RT [%] |
| --- | --- |
| CO[C@H]1[C@H](O)[C@@H](O)[C@H](n2c3c(Cl)cccc3c3c4c(c5c6cccc(Cl)c6[nH]c5c32)C(=O)NC4=O)O[C@@H]1CO [F1, rebeccamycin] | 94 ± 8 |
| COC1C(CO)OC(n2c3ccccc3c3c4c(c5c6ccccc6[nH]c5c32)C(=O)OC4=O)C(O)C1O (stereo not drawn) [F5] | 98 ± 2 |
| COC1C(CO)OC(n2c3ccccc3c3c4c(c5c6ccccc6[nH]c5c32)C(=O)N(O)C4=O)C(O)C1O (stereo not drawn) [F7] | 98 ± 2 |
| COC1C(CO)OC(n2c3c(Cl)cccc3c3c4c(c5c6cccc(Cl)c6[nH]c5c32)C(=O)N(C)C4=O)C(O)C1O (stereo not drawn) [F43] | 95 ± 5 |
| COC1C(CO)OC(n2c3ccccc3c3c4c(c5c6ccccc6[nH]c5c32)C(=O)N(C)C4=O)C(O)C1O (stereo not drawn) [F44] | 100 ± 2 |
| COC1C(CO)OC(n2c3ccccc3c3c4c(c5c6ccccc6[nH]c5c32)C(=O)NC4=O)C(O)C1O (stereo not drawn) [F71] | 85 ± 10 |

tested on: human MCF-7 and Chinese hamster DC3F cells; test: RS activity summary (MCF-7 and DC3F cells); format: cell-based; parameters: key: +: possess RS activity; −: possess no RS activity; conditions: MCF-7 (FIG. 2) and DC3F cells (Table 4)
Protocol: as §1, §2
(§3) Irradiation of Cells. Drug-treated and control cells in medium were irradiated using a cobalt-60 source (Eldorado 8; Theratronics, Canada) at a dose rate of 105 cGy/min.
(§4) Analysis of Survival Curves. Survival curves were corrected for cytotoxicity induced by drug alone treatment. Sensitization enhancement ratios (SERs) and standard deviations for survival curves were determined at 10% cell survival. Each SER was calculated by dividing the radiation dose to induce 10% cell survival in the absence of radiosensitizer with the radiation dose to induce 10% cell survival in the presence of radiosensitizer.

| SMILES | RS (radiosensitization activity) |
| --- | --- |
| CO[C@H]1[C@H](O)[C@@H](O)[C@H](n2c3c(Cl)cccc3c3c4c(c5c6cccc(Cl)c6[nH]c5c32)C(=O)NC4=O)O[C@@H]1CO [F1, rebeccamycin] | + |
| COC1C(CO)OC(n2c3ccccc3c3c4c(c5c6ccccc6[nH]c5c32)C(=O)OC4=O)C(O)C1O (stereo not drawn) [F5] | + |
| COC1C(CO)OC(n2c3ccccc3c3c4c(c5c6ccccc6[nH]c5c32)C(=O)N(O)C4=O)C(O)C1O (stereo not drawn) [F7] | + |
| COC1C(CO)OC(n2c3c(Cl)cccc3c3c4c(c5c6cccc(Cl)c6[nH]c5c32)C(=O)N(C)C4=O)C(O)C1O (stereo not drawn) [F43] | − |
| COC1C(CO)OC(n2c3ccccc3c3c4c(c5c6ccccc6[nH]c5c32)C(=O)N(C)C4=O)C(O)C1O (stereo not drawn) [F44] | − |
| COC1C(CO)OC(n2c3ccccc3c3c4c(c5c6ccccc6[nH]c5c32)C(=O)NC4=O)C(O)C1O (stereo not drawn) [F71] | − |

biological target: T1, covalent topoisomerase-DNA cross-links in CHO cells (Cricetulus griseus, UniProt Q07050, S505G); test: In vivo K+-SDS co-precipitation assay for protein-DNA cross-links; format: cell-based, Chinese hamster; parameters: key to Protein-DNA cross-links: +++: high activity; ++: modest activity; +: low activity; conditions: 30-min drug treatment, based on FIG. 5
T1 construct: endogenous in cells; host or cells: Chinese hamster ovary CHO cells
T1 sequence (Q07050 2-767 S505G): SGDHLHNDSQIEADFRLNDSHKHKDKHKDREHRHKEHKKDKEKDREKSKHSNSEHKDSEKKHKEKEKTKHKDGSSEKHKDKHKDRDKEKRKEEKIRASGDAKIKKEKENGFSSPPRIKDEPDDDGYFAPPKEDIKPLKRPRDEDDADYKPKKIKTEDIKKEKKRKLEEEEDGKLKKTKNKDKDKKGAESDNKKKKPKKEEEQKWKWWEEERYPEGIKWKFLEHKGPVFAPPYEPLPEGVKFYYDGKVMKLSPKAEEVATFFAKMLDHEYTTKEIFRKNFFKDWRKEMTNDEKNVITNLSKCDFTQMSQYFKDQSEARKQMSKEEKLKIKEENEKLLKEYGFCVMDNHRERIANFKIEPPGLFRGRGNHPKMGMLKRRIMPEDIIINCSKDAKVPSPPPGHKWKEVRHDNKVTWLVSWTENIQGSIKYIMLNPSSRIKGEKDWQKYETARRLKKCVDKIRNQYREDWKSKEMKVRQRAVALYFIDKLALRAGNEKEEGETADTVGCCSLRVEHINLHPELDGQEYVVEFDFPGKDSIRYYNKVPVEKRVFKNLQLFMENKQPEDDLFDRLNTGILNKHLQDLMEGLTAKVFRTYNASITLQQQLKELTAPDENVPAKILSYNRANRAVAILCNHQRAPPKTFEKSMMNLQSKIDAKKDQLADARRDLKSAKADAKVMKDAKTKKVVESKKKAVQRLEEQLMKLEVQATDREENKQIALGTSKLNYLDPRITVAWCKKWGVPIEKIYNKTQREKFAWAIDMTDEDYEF
Text: In vivo K^+-SDS co-precipitation assay for protein-DNA cross-links. The K^+-SDS co-precipitation assay as described previously (Chen, Y. N., et al., J. Biol. Chem., 265:10073–10080 (1990)) was used to quantify the formation of covalent topoisomerase-DNA cross-links in drug-treated cells.
Briefly, the DNA in logarithmic growing Chinese hamster CHO cells was overnight-labeled in medium containing 1 μCi/ml of [mehtyl-^3H] thymidine. These cells were then trypsinized and diluted in fresh medium before aliquoted into a 24-well plate. After overnight incubation, the labeled cells were treated with various concentrations of drugs for 30 min, washed with phosphate-buffered saline once, and lysed by adding 1 ml of prewarmed lysis solution (1.25% SDS, 5 mM EDTA, 0.4 mg/ml salmon sperm DNA, pH 8.0, 65° C.).
Following shearing chromosomal DNA by passing the lysate through a 19-gauge needle, the sample was transferred to a tube containing 0.25 ml of 325 mM KCl. The sample was vortexed vigorously for 10 s, cooled on ice for 10 min and centrifuged at 3000 rpm for 10 min at 4° C.
The pellet was then resuspended in 1 ml of a wash solution (100 mM KCl, 1 mM EDTA, 0.1 mg/ml salmon sperm DNA, 10 mM Tris-HCl, pH 8.0) and placed at 65° C. for 10 min with occasional mixing. The sample was again cooled on ice for 10 min and centrifuged at 3000 rpm for 10 min at 4° C. After the pellet from each sample was washed again, the pellet was finally resuspended in 0.2 ml of 65° C. water and added to 5 ml of scintillation fluid to determine radioactive counts.
The background precipitable counts were obtained by treating the lysate with proteinase K (400 μg/ml) at 65° C. for 2 h. Data are arithmetic means (±SD) of three determinations, and the background counts have been subtracted.

| SMILES | Protein-DNA cross-links |
| --- | --- |
| CO[C@H]1[C@H](O)[C@@H](O)[C@H](n2c3c(Cl)cccc3c3c4c(c5c6cccc(Cl)c6[nH]c5c32)C(=O)NC4=O)O[C@@H]1CO [F1, rebeccamycin] | ++ |
| COC1C(CO)OC(n2c3ccccc3c3c4c(c5c6ccccc6[nH]c5c32)C(=O)OC4=O)C(O)C1O (stereo not drawn) [F5] | + |
| COC1C(CO)OC(n2c3ccccc3c3c4c(c5c6ccccc6[nH]c5c32)C(=O)N(O)C4=O)C(O)C1O (stereo not drawn) [F7] | ++ |
| COC1C(CO)OC(n2c3c(Cl)cccc3c3c4c(c5c6cccc(Cl)c6[nH]c5c32)C(=O)N(C)C4=O)C(O)C1O (stereo not drawn) [F43] | + |
| COC1C(CO)OC(n2c3ccccc3c3c4c(c5c6ccccc6[nH]c5c32)C(=O)N(C)C4=O)C(O)C1O (stereo not drawn) [F44] | ++ |
| COC1C(CO)OC(n2c3ccccc3c3c4c(c5c6ccccc6[nH]c5c32)C(=O)NC4=O)C(O)C1O (stereo not drawn) [F71] | +++ |

tested on: human breast cancer MCF-7 cells; test: Clonogenic survival assay with radiation (radiosensitization) in MCF-7 cells; format: cell-based; conditions: 2 μg/ml 1 h before radiation, at 10% survival
Protocol: as §1, §2, §3, §4
The updated programs developed by Dr. N. Albright (San Rafael, Calif.) (Albright, N., Radiat. Res., 112:331–340 (1987)) were used for curve fitting for MCF-7 cells with the linear quadratic (LQ) and the single hit multi-target (SHMT) models. Both the LQ and SHMT models gave qualitatively good fits. The fit with the SHMT model was used for the present study.

| SMILES | ER (SER per footnote c, sensitization enhancement ratio) |
| --- | --- |
| CO[C@H]1[C@H](O)[C@@H](O)[C@H](n2c3c(Cl)cccc3c3c4c(c5c6cccc(Cl)c6[nH]c5c32)C(=O)NC4=O)O[C@@H]1CO [F1, rebeccamycin] | 1.9 |
| COC1C(CO)OC(n2c3ccccc3c3c4c(c5c6ccccc6[nH]c5c32)C(=O)OC4=O)C(O)C1O (stereo not drawn) [F5] | 1.7 |
| COC1C(CO)OC(n2c3ccccc3c3c4c(c5c6ccccc6[nH]c5c32)C(=O)N(O)C4=O)C(O)C1O (stereo not drawn) [F7] | 1.7 |
| COC1C(CO)OC(n2c3c(Cl)cccc3c3c4c(c5c6cccc(Cl)c6[nH]c5c32)C(=O)N(C)C4=O)C(O)C1O (stereo not drawn) [F43] | 1.0 |
| COC1C(CO)OC(n2c3ccccc3c3c4c(c5c6ccccc6[nH]c5c32)C(=O)N(C)C4=O)C(O)C1O (stereo not drawn) [F44] | 1.0 |
| COC1C(CO)OC(n2c3ccccc3c3c4c(c5c6ccccc6[nH]c5c32)C(=O)NC4=O)C(O)C1O (stereo not drawn) [F71] | 1.0 |

same assay, conditions: 10 μg/ml (data not shown)

| SMILES | Enhancement of radiocytotoxicity |
| --- | --- |
| COC1C(CO)OC(n2c3c(Cl)cccc3c3c4c(c5c6cccc(Cl)c6[nH]c5c32)C(=O)N(C)C4=O)C(O)C1O (stereo not drawn) [F43] | do not enhance radiocytotoxicity |
| COC1C(CO)OC(n2c3ccccc3c3c4c(c5c6ccccc6[nH]c5c32)C(=O)N(C)C4=O)C(O)C1O (stereo not drawn) [F44] | do not enhance radiocytotoxicity |
| COC1C(CO)OC(n2c3ccccc3c3c4c(c5c6ccccc6[nH]c5c32)C(=O)NC4=O)C(O)C1O (stereo not drawn) [F71] | do not enhance radiocytotoxicity |

same assay, conditions: SHMT model fit, FIG. 3B

| SMILES | Dq (width of the shoulder of the radiation survival curve) |
| --- | --- |
| CO[C@H]1[C@H](O)[C@@H](O)[C@H](n2c3c(Cl)cccc3c3c4c(c5c6cccc(Cl)c6[nH]c5c32)C(=O)NC4=O)O[C@@H]1CO [F1, rebeccamycin] | drastically reduced |
| COC1C(CO)OC(n2c3ccccc3c3c4c(c5c6ccccc6[nH]c5c32)C(=O)OC4=O)C(O)C1O (stereo not drawn) [F5] | drastically reduced |
| COC1C(CO)OC(n2c3ccccc3c3c4c(c5c6ccccc6[nH]c5c32)C(=O)N(O)C4=O)C(O)C1O (stereo not drawn) [F7] | drastically reduced |

same assay, conditions: one-hour preincubation with 2 μg/ml, FIG. 2

| SMILES | Induction of RS / enhancement of radiocytotoxicity |
| --- | --- |
| CO[C@H]1[C@H](O)[C@@H](O)[C@H](n2c3c(Cl)cccc3c3c4c(c5c6cccc(Cl)c6[nH]c5c32)C(=O)NC4=O)O[C@@H]1CO [F1, rebeccamycin] | induction of RS was observed |
| COC1C(CO)OC(n2c3ccccc3c3c4c(c5c6ccccc6[nH]c5c32)C(=O)OC4=O)C(O)C1O (stereo not drawn) [F5] | induction of RS was observed |
| COC1C(CO)OC(n2c3ccccc3c3c4c(c5c6ccccc6[nH]c5c32)C(=O)N(O)C4=O)C(O)C1O (stereo not drawn) [F7] | induction of RS was observed |
| COC1C(CO)OC(n2c3c(Cl)cccc3c3c4c(c5c6cccc(Cl)c6[nH]c5c32)C(=O)N(C)C4=O)C(O)C1O (stereo not drawn) [F43] | do not enhance radiocytotoxicity |
| COC1C(CO)OC(n2c3ccccc3c3c4c(c5c6ccccc6[nH]c5c32)C(=O)N(C)C4=O)C(O)C1O (stereo not drawn) [F44] | do not enhance radiocytotoxicity |
| COC1C(CO)OC(n2c3ccccc3c3c4c(c5c6ccccc6[nH]c5c32)C(=O)NC4=O)C(O)C1O (stereo not drawn) [F71] | do not enhance radiocytotoxicity |

same assay, conditions: pre-treated 2 μg/ml 1 h, rinsed, then radiation

| SMILES | RT dose (Gy) at 10% survival [Gy] |
| --- | --- |
| CO[C@H]1[C@H](O)[C@@H](O)[C@H](n2c3c(Cl)cccc3c3c4c(c5c6cccc(Cl)c6[nH]c5c32)C(=O)NC4=O)O[C@@H]1CO [F1, rebeccamycin] | 3.8 |
| COC1C(CO)OC(n2c3ccccc3c3c4c(c5c6ccccc6[nH]c5c32)C(=O)OC4=O)C(O)C1O (stereo not drawn) [F5] | 4.2 |
| COC1C(CO)OC(n2c3ccccc3c3c4c(c5c6ccccc6[nH]c5c32)C(=O)N(O)C4=O)C(O)C1O (stereo not drawn) [F7] | 4.2 |
| COC1C(CO)OC(n2c3c(Cl)cccc3c3c4c(c5c6cccc(Cl)c6[nH]c5c32)C(=O)N(C)C4=O)C(O)C1O (stereo not drawn) [F43] | 7.0 |
| COC1C(CO)OC(n2c3ccccc3c3c4c(c5c6ccccc6[nH]c5c32)C(=O)N(C)C4=O)C(O)C1O (stereo not drawn) [F44] | 6.9 |
| COC1C(CO)OC(n2c3ccccc3c3c4c(c5c6ccccc6[nH]c5c32)C(=O)NC4=O)C(O)C1O (stereo not drawn) [F71] | 7.2 |
